Some results are limits rather than exact numbers.

Assay type in all cases: cell-free
In assay [1] the target is Tyrosine-protein kinase CSK (Homo sapiens) (UniProt P41240). In words: Inhibition of human CSK in HL-60 cells lysate assessed as reduction of labeling of acyl-phosphate ATP probe at 100 nM.
Assay [2] addresses T1, Dual specificity mitogen-activated protein kinase kinase 7 (Homo sapiens) (UniProt O14733).
T1 sequence (whole entry): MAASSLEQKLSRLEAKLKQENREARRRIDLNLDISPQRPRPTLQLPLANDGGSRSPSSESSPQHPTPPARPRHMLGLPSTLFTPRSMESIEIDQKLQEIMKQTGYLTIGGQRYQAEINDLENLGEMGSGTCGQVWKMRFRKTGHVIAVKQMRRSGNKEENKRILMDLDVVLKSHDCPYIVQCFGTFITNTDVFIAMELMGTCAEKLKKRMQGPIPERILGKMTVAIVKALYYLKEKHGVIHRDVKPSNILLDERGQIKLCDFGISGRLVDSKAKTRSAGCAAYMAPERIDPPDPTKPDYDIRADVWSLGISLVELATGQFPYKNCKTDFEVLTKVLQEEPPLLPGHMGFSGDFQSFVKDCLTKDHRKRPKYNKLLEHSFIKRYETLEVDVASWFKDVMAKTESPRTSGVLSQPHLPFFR
In words: Inhibition of human MAP2K7 in HL-60 cells lysate assessed as reduction of labeling of acyl-phosphate ATP probe at 100 nM.

Assay [3] concerns the target Serine/threonine-protein kinase ATR (Homo sapiens) (UniProt Q13535). In words: Inhibition of human ATR in HL-60 cells lysate assessed as reduction of labeling of acyl-phosphate ATP probe at 100 nM.
Assay [4] deals with eIF-2-alpha kinase GCN2 (Homo sapiens) (UniProt Q9P2K8). In words: Inhibition of human GCN2 domain2 in HL-60 cells lysate assessed as reduction of labeling of acyl-phosphate ATP probe at 100 nM.
In assay [5] the target is Glycogen synthase kinase-3 alpha (Homo sapiens) (UniProt P49840). In words: Inhibition of human GSK3alpha in HL-60 cells lysate assessed as reduction of labeling of acyl-phosphate ATP probe at 100 nM.
Assay [6] concerns the target T2, Serine/threonine-protein kinase A-Raf (Homo sapiens) (UniProt P10398).
T2 sequence (whole entry): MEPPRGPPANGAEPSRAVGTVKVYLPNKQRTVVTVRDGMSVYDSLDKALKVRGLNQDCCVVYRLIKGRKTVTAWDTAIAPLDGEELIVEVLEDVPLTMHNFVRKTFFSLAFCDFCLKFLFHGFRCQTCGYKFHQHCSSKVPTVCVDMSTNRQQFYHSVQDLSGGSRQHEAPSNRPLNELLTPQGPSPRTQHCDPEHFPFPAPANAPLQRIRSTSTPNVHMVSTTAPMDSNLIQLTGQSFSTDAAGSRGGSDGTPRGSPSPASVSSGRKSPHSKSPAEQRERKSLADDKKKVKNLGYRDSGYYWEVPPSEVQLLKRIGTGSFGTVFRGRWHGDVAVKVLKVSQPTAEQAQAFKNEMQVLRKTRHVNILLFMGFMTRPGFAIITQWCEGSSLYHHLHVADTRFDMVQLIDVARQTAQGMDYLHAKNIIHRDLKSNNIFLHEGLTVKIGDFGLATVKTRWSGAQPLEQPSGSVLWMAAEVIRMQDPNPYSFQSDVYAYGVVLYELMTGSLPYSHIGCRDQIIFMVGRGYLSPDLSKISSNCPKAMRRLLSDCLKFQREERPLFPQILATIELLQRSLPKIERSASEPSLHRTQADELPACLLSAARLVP
In words: Inhibition of human ARAF in HL-60 cells lysate assessed as reduction of labeling of acyl-phosphate ATP probe at 100 nM.

In assay [7] the target is T3, Inhibitor of nuclear factor kappa-B kinase subunit epsilon (Homo sapiens) (UniProt Q14164).
T3 sequence (whole entry): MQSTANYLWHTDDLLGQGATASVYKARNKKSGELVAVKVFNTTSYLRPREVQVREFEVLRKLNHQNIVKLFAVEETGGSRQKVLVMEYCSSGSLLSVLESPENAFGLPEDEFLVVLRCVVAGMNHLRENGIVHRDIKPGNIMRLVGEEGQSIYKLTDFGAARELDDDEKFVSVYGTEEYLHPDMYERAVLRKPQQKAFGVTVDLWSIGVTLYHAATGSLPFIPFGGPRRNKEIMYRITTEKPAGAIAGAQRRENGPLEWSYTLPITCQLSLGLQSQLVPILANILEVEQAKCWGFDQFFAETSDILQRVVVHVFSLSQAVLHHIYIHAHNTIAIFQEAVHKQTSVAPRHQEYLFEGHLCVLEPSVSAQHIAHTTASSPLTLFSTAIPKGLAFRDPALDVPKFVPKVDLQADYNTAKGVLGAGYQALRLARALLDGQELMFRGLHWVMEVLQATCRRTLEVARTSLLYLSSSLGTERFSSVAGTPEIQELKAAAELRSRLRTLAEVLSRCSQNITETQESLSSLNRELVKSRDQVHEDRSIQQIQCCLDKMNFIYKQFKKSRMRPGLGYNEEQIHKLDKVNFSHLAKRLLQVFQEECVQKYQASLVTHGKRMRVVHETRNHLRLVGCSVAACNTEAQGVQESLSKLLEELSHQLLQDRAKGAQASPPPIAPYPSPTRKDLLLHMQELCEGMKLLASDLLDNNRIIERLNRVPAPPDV
In words: Inhibition of human IKKepsilon in HL-60 cells lysate assessed as reduction of labeling of acyl-phosphate ATP probe at 100 nM.

For assay [8], the target named is Interferon-induced, double-stranded RNA-activated protein kinase (Homo sapiens) (UniProt P19525). In words: Inhibition of human PKR in HL-60 cells lysate assessed as reduction of labeling of acyl-phosphate ATP probe at 100 nM.
In assay [9] the target is T4, Inositol-tetrakisphosphate 1-kinase (Homo sapiens) (UniProt Q13572).
T4 sequence (whole entry): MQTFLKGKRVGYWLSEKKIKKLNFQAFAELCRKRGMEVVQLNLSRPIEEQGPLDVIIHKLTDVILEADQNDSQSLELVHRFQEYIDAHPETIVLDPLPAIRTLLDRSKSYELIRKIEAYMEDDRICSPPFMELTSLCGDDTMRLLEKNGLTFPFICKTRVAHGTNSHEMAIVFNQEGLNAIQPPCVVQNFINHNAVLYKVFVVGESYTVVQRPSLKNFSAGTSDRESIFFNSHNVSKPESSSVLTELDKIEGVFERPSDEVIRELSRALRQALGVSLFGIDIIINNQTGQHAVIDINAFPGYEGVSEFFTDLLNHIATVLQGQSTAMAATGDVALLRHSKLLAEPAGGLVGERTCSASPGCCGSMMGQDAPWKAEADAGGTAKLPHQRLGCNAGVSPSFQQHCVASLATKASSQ
In words: Inhibition of human ITPK1 in HL-60 cells lysate assessed as reduction of labeling of acyl-phosphate ATP probe at 100 nM.

For assay [10], the target named is Mitogen-activated protein kinase kinase kinase 11 (Homo sapiens) (UniProt Q16584). In words: Inhibition of human MLK3 in HL-60 cells lysate assessed as reduction of labeling of acyl-phosphate ATP probe at 100 nM.
Mitogen-activated protein kinase kinase kinase 11 (Homo sapiens), sequence (Q16584 whole entry, looked up): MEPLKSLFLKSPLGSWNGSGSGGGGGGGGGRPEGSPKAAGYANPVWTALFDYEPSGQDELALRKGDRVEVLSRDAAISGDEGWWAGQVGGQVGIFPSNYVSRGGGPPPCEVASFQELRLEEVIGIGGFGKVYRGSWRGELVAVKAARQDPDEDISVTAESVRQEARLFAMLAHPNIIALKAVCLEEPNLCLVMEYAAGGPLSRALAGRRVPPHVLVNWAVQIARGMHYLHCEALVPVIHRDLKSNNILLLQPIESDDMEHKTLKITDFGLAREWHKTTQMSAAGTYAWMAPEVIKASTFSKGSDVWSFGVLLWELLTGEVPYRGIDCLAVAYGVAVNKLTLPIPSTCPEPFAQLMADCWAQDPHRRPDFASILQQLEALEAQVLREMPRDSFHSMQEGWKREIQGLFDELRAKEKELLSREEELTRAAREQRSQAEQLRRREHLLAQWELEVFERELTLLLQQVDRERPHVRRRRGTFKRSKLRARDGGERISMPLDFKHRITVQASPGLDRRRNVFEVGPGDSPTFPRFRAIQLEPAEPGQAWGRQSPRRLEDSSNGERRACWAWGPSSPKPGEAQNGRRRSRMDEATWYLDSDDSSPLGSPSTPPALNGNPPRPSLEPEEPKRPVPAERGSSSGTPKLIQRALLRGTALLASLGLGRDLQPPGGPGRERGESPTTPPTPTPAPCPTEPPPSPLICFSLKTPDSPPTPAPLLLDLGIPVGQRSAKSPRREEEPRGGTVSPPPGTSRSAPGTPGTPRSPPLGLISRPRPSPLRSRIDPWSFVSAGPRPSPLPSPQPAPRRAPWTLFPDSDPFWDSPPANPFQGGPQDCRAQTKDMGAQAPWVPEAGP

Serine/threonine-protein kinase ATR (Homo sapiens), sequence (Q13535 whole entry, looked up, the tested form may be a part): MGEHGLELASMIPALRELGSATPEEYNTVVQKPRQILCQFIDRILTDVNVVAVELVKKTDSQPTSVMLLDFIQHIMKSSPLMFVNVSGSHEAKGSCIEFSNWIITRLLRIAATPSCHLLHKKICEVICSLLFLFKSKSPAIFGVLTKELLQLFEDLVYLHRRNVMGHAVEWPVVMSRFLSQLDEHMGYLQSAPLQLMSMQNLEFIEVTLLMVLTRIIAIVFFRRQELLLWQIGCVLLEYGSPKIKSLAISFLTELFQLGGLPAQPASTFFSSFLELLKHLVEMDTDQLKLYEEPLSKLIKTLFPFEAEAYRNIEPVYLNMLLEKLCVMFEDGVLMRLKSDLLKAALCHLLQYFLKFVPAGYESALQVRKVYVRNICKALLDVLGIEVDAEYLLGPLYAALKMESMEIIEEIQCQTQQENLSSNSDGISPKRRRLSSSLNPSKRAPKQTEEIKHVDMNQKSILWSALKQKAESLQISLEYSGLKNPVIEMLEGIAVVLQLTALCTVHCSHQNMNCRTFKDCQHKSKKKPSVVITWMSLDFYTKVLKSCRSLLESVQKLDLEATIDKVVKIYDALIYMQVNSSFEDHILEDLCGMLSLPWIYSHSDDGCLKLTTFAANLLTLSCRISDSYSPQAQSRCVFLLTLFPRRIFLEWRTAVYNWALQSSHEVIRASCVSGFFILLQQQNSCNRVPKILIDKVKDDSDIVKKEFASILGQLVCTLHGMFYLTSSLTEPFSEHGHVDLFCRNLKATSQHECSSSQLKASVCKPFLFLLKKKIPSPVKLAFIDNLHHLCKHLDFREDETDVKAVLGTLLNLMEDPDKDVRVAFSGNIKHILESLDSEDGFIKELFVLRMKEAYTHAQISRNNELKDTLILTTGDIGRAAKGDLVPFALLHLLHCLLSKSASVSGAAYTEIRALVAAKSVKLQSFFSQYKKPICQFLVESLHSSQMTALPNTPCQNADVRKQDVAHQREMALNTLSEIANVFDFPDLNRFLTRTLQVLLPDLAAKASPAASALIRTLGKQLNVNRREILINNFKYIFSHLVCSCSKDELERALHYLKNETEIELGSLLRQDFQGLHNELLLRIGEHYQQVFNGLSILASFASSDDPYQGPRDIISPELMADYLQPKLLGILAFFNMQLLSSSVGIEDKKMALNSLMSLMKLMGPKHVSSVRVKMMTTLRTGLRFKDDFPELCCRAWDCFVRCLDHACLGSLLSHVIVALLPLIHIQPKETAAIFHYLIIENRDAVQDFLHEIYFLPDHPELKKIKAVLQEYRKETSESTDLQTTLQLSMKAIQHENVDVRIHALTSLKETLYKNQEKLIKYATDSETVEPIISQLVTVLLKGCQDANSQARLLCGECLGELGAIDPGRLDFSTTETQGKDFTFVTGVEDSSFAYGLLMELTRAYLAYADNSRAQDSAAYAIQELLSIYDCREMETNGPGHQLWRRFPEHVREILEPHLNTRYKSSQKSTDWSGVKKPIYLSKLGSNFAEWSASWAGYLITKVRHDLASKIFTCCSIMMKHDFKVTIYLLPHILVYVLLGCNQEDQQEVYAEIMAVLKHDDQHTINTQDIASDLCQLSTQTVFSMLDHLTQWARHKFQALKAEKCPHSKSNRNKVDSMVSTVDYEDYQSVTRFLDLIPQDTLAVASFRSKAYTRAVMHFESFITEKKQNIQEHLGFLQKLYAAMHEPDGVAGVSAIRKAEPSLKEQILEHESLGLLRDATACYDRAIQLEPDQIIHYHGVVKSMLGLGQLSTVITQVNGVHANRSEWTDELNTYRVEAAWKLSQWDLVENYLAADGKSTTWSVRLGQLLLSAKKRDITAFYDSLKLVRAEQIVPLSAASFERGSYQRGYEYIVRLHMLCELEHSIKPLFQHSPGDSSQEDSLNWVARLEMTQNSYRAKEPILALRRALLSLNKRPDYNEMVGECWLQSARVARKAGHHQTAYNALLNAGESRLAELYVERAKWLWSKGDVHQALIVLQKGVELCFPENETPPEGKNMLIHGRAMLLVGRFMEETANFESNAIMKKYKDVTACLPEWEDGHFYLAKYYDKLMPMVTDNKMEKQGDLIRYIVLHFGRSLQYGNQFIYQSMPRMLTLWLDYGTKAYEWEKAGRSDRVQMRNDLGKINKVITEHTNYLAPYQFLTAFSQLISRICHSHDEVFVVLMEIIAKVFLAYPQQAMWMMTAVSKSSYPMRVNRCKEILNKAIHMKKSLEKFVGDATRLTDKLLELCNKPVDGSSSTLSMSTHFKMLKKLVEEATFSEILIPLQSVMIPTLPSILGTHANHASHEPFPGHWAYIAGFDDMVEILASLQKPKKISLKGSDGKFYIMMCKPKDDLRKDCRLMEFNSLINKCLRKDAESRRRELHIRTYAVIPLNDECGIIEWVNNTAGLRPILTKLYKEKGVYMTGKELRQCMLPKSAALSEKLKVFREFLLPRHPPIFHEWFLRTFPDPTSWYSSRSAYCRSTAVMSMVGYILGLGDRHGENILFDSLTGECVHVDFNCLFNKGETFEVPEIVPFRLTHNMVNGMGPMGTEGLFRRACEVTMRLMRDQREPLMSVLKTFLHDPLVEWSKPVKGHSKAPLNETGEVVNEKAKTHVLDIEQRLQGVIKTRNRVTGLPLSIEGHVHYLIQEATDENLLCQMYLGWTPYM
eIF-2-alpha kinase GCN2 (Homo sapiens), sequence (Q9P2K8 whole entry, the tested form may be a part): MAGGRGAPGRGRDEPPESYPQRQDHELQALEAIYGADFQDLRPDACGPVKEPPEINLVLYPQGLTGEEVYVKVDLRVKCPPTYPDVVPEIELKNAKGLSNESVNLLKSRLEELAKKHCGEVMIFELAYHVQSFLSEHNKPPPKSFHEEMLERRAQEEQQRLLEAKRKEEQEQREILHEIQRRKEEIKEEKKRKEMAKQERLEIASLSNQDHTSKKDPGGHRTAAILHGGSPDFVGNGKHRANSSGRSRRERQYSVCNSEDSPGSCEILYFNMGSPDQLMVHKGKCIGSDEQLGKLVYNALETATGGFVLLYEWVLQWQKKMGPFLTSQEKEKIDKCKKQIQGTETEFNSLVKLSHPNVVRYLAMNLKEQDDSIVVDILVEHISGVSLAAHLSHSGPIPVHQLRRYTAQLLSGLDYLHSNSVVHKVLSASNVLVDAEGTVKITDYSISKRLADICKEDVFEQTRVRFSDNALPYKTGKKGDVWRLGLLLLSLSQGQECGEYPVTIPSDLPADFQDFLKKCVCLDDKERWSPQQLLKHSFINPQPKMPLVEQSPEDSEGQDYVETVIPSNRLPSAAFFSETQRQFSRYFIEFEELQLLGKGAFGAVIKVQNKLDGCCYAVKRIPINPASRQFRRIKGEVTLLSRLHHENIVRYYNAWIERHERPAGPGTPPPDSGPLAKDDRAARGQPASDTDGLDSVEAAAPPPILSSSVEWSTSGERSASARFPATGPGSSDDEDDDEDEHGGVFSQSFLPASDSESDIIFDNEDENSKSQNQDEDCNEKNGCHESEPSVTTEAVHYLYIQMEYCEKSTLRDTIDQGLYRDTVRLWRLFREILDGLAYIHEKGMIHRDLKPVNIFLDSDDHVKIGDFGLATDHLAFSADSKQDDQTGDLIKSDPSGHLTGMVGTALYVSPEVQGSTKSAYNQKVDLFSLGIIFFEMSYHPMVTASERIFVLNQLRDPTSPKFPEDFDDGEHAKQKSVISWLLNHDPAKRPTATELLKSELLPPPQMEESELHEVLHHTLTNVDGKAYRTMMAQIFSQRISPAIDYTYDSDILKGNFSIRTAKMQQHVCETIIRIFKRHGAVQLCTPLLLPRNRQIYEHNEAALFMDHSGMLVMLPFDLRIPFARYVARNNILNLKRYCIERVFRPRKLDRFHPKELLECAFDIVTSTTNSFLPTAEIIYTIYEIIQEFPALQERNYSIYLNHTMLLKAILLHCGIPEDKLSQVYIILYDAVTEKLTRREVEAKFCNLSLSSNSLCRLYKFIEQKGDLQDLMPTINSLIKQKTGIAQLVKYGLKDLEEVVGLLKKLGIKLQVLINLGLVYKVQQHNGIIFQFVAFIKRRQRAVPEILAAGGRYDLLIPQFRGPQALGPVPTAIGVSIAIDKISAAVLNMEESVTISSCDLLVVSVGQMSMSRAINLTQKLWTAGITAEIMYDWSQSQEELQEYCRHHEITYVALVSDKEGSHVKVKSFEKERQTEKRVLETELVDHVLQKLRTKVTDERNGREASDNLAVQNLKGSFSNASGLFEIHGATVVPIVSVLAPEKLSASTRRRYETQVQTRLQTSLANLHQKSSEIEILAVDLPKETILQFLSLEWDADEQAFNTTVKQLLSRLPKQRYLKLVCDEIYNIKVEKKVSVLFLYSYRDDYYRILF

What is called inhibition is the percentage by which the read-out fell short of the control. Consider `C[C@H]1COc2c(NCCCc3ccccn3)c(F)c(N)c3c(=O)c(C#N)cn1c23`, for which the inhibition in [1] is less than 35%; in assay [2] it was less than 35%; in assay [3], less than 35%; in assay [4], less than 35%; in [5] it was greater than 99.5%; in assay [6], less than 35%. For the same compound, the inhibition in assay [7], in [8], in assay [9] and in [10] was less than 35% in each case.

Consider `C[C@H]1COc2c(NCCCc3ccccn3)c(F)c(N)c3c(=O)c(C(=O)O)cn1c23`, for which the inhibition in assay [1] was less than 35%; in assay [2] it was less than 35%; in assay [3], less than 35%; in assay [4], less than 35%; in [5], 94.3%; in [6], less than 35%. Moreover, the inhibition in assay [7], in assay [8], in assay [9] and in assay [10] was less than 35% in each case.

On to `C[C@H]1COc2c(NCCCn3cccn3)c(F)c(N)c3c(=O)c(C(=O)O)cn1c23`, for which the inhibition in assay [1] is less than 35%; in assay [2], less than 35%; in assay [3], less than 35%; in assay [4], less than 35%; in assay [5], 95.2%; in assay [6] it was less than 35%. The inhibition in [7], in assay [8], in assay [9] and in assay [10] was less than 35% in each case.

Regarding `C[C@H]1COc2c(NCCCn3cccn3)c(F)c(N)c3c(=O)c(C#N)cn1c23`, the inhibition in assay [1] was less than 35%; in assay [2], less than 35%; in assay [3] it was less than 35%; in assay [4], less than 35%; in assay [5], greater than 99.5%; in assay [6], less than 35%. The inhibition in [7], in assay [8], in assay [9] and in assay [10] was less than 35% in each case.

The record behind these values is ChEMBL document CHEMBL1938230, “6-Position optimization of tricyclic 4-quinolone-based inhibitors of glycogen synthase kinase-3β: discovery of nitrile derivatives with picomolar potency” (Bioorg Med Chem Lett, 2012).
